Data on one molecule can be found in patent US20210322393A1, “METHODS OF TREATING COGNITIVE IMPAIRMENT ASSOCIATED WITH NEURODEGENERATIVE DISEASE” (Aptinyx Inc., priority 2019, published 2021).

Molecules are shown by their SMILES.

What all share (type): in vivo
A short description of data set [1]: Tolerability in rat.
A short description of data set [2]: Tolerability in dog.
Data set [3] in a line: Pharmacokinetic profile in rat.
Data set [4] is described as follows: Pharmacokinetic profile in dog.
Data set [5] deals with rodent cognitive models (novel object recognition). The data set can be described thus: Novel object recognition rodent cognitive model.
Data set [6] relates to rodent cognitive models (Morris water maze). In words: Morris water maze rodent cognitive model.
Data set [7] deals with MPTP non-human primate model of Parkinson's disease cognitive impairment. In words: Chronic low dose MPTP non-human primate model of Parkinson's disease cognitive impairment.

With `COc1ccc(CN2C[C@@]3(CCNC(=O)C3)C2=O)cc1` [The Compound, (S) 2-(4-methoxybenzyl)-2,7-diazaspiro[3.5]nonane-1,6-dione], the tolerability entry in data set [1] and in data set [2] was “well tolerated” throughout. The pharmacokinetic profile entry in data set [3] and in data set [4] was “favorable pharmacokinetic profile” in each case. The “efficacy in novel object recognition” value in data set [5] was “robust efficacy”. In addition, the “efficacy in Morris water maze” value in data set [6] is reported as “robust efficacy”. In addition, in data set [7] (MPTP non-human primate study), the “onset, size and duration of effect” value is “rapid, robust, and long lasting effect”. In addition, the “effect on MPTP-induced cognitive deficits (attention, working memory, executive function)” value in data set [7] (primate versions of Cambridge Neuropsychological Test Automated Battery assessments) is given as “reversed MPTP-induced deficits in several cognitive domains”.
